Assay [1] has as its system ds26 (DNA, duplex) CAATCGGATCGAATTCGATCCGATTG
In words: G4-FID, thiazole orange displacement. The conditions noted are these: 100 mM KCl; 10 mM lithium cacodylate pH 7.3, 1% DMSO; thiazole orange displaced; 1 µM compound, 0.25 µM DNA.

In assay [2] the test system is CEB25-WT (DNA, G4) AAGGGTGGGTGTAAGTGTGGGTGGGT
In words: G4-FID, thiazole orange displacement. Particulars: 100 mM KCl; 10 mM lithium cacodylate pH 7.3, 1% DMSO; thiazole orange displaced; 1 µM compound, 0.25 µM DNA.

The test system of a further assay is duplex ds26 DNA. As to the kind of experiment: TO-PRO-3 G4-FID assay. The conditions noted are these: ds26, K+100 buffer. Type of assay: binding. On the procedure:
For the G4-FID assay, the oligonucleotides were dissolved in K^+100 buffer (10 mM lithium cacodylate buffer pH 7.3, 100 mM KCl, 1% DMSO). Oligonucleotide concentrations were determined on the basis of their absorbance at 260 nm. For the fluorimetric titration, the oligonucleotides were dissolved in K^+100 buffer without DMSO. For the FRET-melting assay, the oligonucleotides were dissolved in K^+1 buffer (10 mM lithium cacodylate buffer pH 7.3, 1 mM KCl, 99 mM LiCl) except for F-21-T. F-21-T was dissolved in K^+10 buffer (10 mM lithium cacodylate buffer pH 7.3, 10 mM KCl, 90 mM LiCl). […]
Each G4-FID assay was performed in a 96-well Non-Binding Surface black with black bottom polystyrene microplates (Corning). […] After 5 min of orbital shaking at 500 rpm, fluorescence is measured using the following experimental parameters: positioning delay of 0.5 s, 20 flashes per well, emission/excitation filters for TO at 485/520, TO-PRO-3 at 620/670, and PhenDV at 355/520 gain adjusted at 80% of the fluorescence from the most fluorescent well (i.e., a well from column A for TO and a well from column H).
The percentage of TO displacement is calculated from the fluorescence intensity (F), using (1) % TO displacement=1−F/F0 where F0 is the fluorescence from the fluorescent probe bound to DNA without added ligand. […]

The subject of assay [3] is c-myc* (DNA, G4) TGAGGGTGGGTAGGGTGGGTAA
As to the kind of experiment: denaturing gel electrophoresis, 3'-exonuclease digestion. Particulars: 100 mM KCl or KClO4; covalent; platination mainly A21/A22, also A12/G13; 18 h, 32 °C, 10 µM DNA.

Assay [4] relates to F-21-T (DNA, G4) GGGTTAGGGTTAGGGTTAGGG
As to the kind of experiment: FRET-melting. Particulars: 10 mM KCl, 90 mM LiCl; 10 mM lithium cacodylate pH 7.3; 1 µM compound, 0.2 µM DNA.

Assay [5] concerns F-CEB25-WT-T (DNA, G4) AGGGTGGGTGTAAGTGTGGGTGGGT
As to the kind of experiment: FRET-melting. The conditions noted are these: 1 mM KCl, 99 mM LiCl; 10 mM lithium cacodylate pH 7.3; 1 µM compound, 0.2 µM DNA.

Assay [6] relates to F-myc-T (DNA, G4) TGAGGGTGGGTAGGGTGGGTAA
As to the kind of experiment: FRET-melting. The conditions noted are these: 1 mM KCl, 99 mM LiCl; 10 mM lithium cacodylate pH 7.3; 1 µM compound, 0.2 µM DNA.

The next assay deals with 22AG human telomeric G4. As to the kind of experiment: Platination of 22AG followed by denaturing gel electrophoresis. It counts as biochemical. Particulars: 0.2 µM 22AG, 1 µM complex, 25 to 95 °C gradient, K+10 buffer. From the text: Since all these complexes (except for Pt(PA)-tpy) are susceptible to induce platination reactions, they can be exacerbated by a high temperature and by an increased number of nucleophilic sites which are exposed during unfolding (increased N7 G free sites); we wonder if such a reaction could occur during FRET-melting experiments and to what extent. Therefore, we followed the extent of platination reactions of c-myc and 22AG (same sequences as those used for FRET-melting but without fluorophore labeling) as a function of the melting temperature using ^32P-labelled oligonucleotides and denaturing gel electrophoresis (Figure 2).
The oligonucleotides were 5’-end-labelled using a polynucleotide kinase and (γ^32P)-ATP (Perkin Helmer). The reaction products were purified by electrophoresis on 20% denaturing gel. Sample platinations were prepared by folding a mixture of 5’-end-radiolabeled DNA and 10 µM or 100 µM of non-radiolabeled material in 100 mM KClO4 or 100 mM KCl solution except for the platination reaction in the denaturing temperature conditions. The folding was achieved by heating the samples at 90 °C for 5 min, followed by slow cooling to room temperature over the course of 2 h to induce the formation of the quadruplex structure. It was then incubated with platinum complexes, and platinated products were separated by electrophoresis on 15% denaturing gel. […]

In assay [7] the test system is F-21CTA-T (DNA, G4) AGGGCTAGGGCTAGGGCTAGGG
As to the kind of experiment: FRET-melting. Particulars: 1 mM KCl, 99 mM LiCl; 10 mM lithium cacodylate pH 7.3; 1 µM compound, 0.2 µM DNA.

For assay [8], the system named is c-myc (myc22) (DNA, G4) TGAGGGTGGGTAGGGTGGGTAA
As to the kind of experiment: G4-FID, TO-PRO-3 displacement. Particulars: 100 mM KCl; 10 mM lithium cacodylate pH 7.3, 1% DMSO; TO-PRO-3 displaced; 1 µM compound, 0.25 µM DNA.

The subject of assay [9] is CEB25-WT (DNA, G4) AAGGGTGGGTGTAAGTGTGGGTGGGT
As to the kind of experiment: G4-FID, TO-PRO-3 displacement. The conditions noted are these: 100 mM KCl; 10 mM lithium cacodylate pH 7.3, 1% DMSO; TO-PRO-3 displaced; 1 µM compound, 0.25 µM DNA.

Assay [10] deals with 21CTA (DNA, G4) AGGGCTAGGGCTAGGGCTAGGG
As to the kind of experiment: G4-FID, TO-PRO-3 displacement. The conditions noted are these: 100 mM KCl; 10 mM lithium cacodylate pH 7.3, 1% DMSO; TO-PRO-3 displaced; 1 µM compound, 0.25 µM DNA.

Assay [11] concerns 22AG (DNA, G4) AGGGTTAGGGTTAGGGTTAGGG
As to the kind of experiment: G4-FID, TO-PRO-3 displacement. Particulars: 100 mM KCl; 10 mM lithium cacodylate pH 7.3, 1% DMSO; TO-PRO-3 displaced; 1 µM compound, 0.25 µM DNA.

Turning to `CN(C)CCCNCc1ccc(-c2cc(-c3ccccn3)nc(-c3ccccn3)c2)cc1.[Cl-].[Cl][Pt+]` [Pt-ctpy], the entries for the “% TO displacement” value in assay [1] and in assay [2] were below 20% and above 80%, respectively. Further, the “% of TOPRO3 displacement at 1 µM of ligand” value in the assay with duplex ds26 DNA is on record as 24%.
`Cc1ccc(-c2cc(-c3ccccn3)nc(-c3ccccn3)c2)cc1.[Cl-].[Cl][Pt+]` [Pt-ttpy]: the binding result in [3] was “yes”. Besides, the “% TO displacement” value in assay [1] was below 20%; in assay [2], above 80%. Also, the shift in melting temperature (ΔTm) in assay [4], in [5], in assay [6] and in [7] was above 10 °C throughout. For the same compound, the “platination of 22AG during melting temperature experiments” value in the assay with 22AG human telomeric G4 was “clearly platinate”. The “% of TOPRO3 displacement at 1 µM of ligand” value with duplex ds26 DNA was determined as 13%.
`CN(C)c1ccc(/C=C/c2cc(-c3ccccn3)nc(-c3ccccn3)n2)cc1.[Cl-].[Cl][Pt+]` [Pt-vpym, Chloro-(E)-4-(2-(2,6-di(pyridin-2-yl)pyrimidin-4-yl)vinyl)-N,N-dimethylaniline-platinum(II) Chloride]: the “% TO-PRO-3 displacement” value in [8], in assay [9], in assay [10] and in assay [11] was ~ 30% in each case.
Turning to `[Cl-].[Cl][Pt+].c1ccc(-c2cccc(-c3ccccn3)n2)nc1` [Pt-tpy], in the assay with 22AG human telomeric G4, the “platination of 22AG during melting temperature experiments” value is on record as “clearly platinate”.
Take `[Cl-].[Cl][Pt+].c1ccc(-c2cc(-c3ccc(OCCN4CCCC4)cc3)nc(-c3ccccn3)n2)nc1` [Pt-cpym, Chloro-(2,4-di(pyridin-2-yl)-6-(4-(2-(pyrrolidin-1-yl)ethoxy)phenyl)pyrimidine)-platinum(II) Chloride]: the “% TO displacement” value in [2] is below 60%.

(Values after PMC6385020 (Molecules, 2019).)
